The text below walks through data of patent US20070218475A1, “Efficient drug screening for protein targets” (priority 2005, published 2007).

Experiment [1] addresses T1, mouse Ptch (Mus musculus, UniProt Q61115).
T1 construct: expressed in transfected cells; host or cells: Cos-1
T1 sequence (Q61115 1-1434): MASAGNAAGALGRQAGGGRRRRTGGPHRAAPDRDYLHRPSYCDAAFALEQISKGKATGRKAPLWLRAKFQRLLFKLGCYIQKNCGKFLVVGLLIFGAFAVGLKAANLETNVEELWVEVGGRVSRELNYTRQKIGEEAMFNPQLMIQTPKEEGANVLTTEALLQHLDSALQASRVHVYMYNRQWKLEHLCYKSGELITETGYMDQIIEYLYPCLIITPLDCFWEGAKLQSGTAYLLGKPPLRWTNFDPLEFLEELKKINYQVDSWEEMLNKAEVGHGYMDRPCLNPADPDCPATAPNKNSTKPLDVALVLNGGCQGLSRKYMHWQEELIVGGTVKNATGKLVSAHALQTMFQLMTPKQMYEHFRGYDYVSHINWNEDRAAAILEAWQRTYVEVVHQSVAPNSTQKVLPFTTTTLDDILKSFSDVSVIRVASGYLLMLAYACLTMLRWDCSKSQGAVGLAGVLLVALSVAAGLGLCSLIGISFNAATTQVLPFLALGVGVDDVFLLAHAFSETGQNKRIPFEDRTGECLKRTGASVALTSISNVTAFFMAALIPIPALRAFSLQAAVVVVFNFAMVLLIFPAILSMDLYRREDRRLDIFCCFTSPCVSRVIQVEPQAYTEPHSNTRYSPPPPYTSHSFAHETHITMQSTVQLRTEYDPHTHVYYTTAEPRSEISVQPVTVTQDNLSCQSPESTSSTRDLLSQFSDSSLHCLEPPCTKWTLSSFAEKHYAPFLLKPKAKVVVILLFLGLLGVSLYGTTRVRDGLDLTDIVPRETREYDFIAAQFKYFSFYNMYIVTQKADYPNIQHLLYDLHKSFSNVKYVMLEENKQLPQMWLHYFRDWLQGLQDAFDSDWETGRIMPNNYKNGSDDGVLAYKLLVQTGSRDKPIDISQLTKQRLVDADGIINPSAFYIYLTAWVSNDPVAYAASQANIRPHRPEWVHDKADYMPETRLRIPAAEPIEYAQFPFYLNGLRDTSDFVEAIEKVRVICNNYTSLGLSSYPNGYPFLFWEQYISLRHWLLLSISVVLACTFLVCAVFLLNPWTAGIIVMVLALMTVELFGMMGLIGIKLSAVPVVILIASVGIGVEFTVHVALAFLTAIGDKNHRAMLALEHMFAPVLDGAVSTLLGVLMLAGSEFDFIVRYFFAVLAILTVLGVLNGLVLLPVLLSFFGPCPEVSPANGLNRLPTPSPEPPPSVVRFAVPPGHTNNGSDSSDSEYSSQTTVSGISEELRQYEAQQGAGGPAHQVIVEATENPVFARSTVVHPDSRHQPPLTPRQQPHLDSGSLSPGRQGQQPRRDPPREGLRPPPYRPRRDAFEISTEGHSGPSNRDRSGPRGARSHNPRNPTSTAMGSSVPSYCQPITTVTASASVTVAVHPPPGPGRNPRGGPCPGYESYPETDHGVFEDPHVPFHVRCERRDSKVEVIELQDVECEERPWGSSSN
Nature of the experiment: Fluorescence (BODIPY-cyclopamine) binding assay, Cos-1 cells expressing Ptch. The note with it: flow cytometry. The procedure: (§1) Fluorescence binding assay: Cos-1 cells were transfected in 6-well plates with the described expression vectors (1 μg/well), and after two days, incubated in DMEM containing 10% fetal bovine serum, 5 nM BODIPY-cyclopamine, and various concentrations of the indicated competitors for 4-6 h at 37° C. For flow cytometry experiments, the cells were then trypsinized, collected by centrifugation, resuspended in phenol red-free DMEM containing 0.5% bovine calf serum, and analyzed for green fluorescence (FACScan, Beckton Dickinson). A fluorescence intensity range that excludes non-transfected cells was then selected for quantification of specific BODIPY-cyclopamine binding (see brackets in FIGS. 2C, 2D, and 3A). Curve fitting analysis was performed with Kaleidograph (Synergy Software).
(Flow cytometry measures light scatter and fluorescence of single cells or particles in a stream.)

Experiment [2] concerns the target T2, SmoA1 (Mus musculus, UniProt P56726, W539L).
T2 construct: expressed in transfected cells; host or cells: Cos-1
As to the kind of experiment: Fluorescence (BODIPY-cyclopamine) binding assay, SmoA1-expressing Cos-1 cells. The note with it: flow cytometry. Here is the method:
as §1

The target in experiment [3] is T3, mouse Frizzled7 protein (Mus musculus, UniProt Q61090).
T3 construct: expressed in transfected cells; host or cells: Cos-1
As to the kind of experiment: Fluorescence (BODIPY-cyclopamine) binding assay, Cos-1 cells expressing Frizzled7. The settings on record: flow cytometry. Here is the method:
as §1

Experiment [4] concerns the target T4, SmoΔCT (Mus musculus, UniProt P56726).
T4 construct: expressed in transfected cells; host or cells: Cos-1
T4 sequence (P56726 33-555 limits assumed): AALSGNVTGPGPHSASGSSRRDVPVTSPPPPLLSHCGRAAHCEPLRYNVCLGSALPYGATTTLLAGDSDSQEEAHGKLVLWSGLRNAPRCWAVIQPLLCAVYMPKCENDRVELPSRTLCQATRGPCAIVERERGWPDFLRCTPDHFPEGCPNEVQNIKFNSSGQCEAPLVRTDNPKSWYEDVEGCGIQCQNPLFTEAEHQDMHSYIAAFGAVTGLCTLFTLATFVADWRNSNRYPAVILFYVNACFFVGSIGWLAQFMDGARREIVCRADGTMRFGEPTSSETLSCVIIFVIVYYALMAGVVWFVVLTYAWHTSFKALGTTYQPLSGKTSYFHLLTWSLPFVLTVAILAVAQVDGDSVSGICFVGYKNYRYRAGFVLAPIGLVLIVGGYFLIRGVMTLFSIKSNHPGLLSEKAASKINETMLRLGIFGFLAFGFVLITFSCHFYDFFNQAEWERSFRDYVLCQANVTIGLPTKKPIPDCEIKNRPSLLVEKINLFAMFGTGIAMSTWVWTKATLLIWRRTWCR
As to the kind of experiment: Fluorescence (BODIPY-cyclopamine) binding assay, Cos-1 cells expressing SmoΔCT. The settings on record: Cos-1 cells, flow cytometry. From the text:
Preparation of Smo fusion proteins and deletion mutants: Both Smo-Myc3 and SmoA1-Myc3 are C-terminally fused to three consecutive Myc epitopes. […] Smo-GFP is comprised of green fluorescent protein fused to the C-terminus of Smo, and the fluorescent proteins in SmoA1-YFP, and SmoA1-GFP are similarly fused to the C-terminus of SmoA1. All constructs were generated by PCR and verified by DNA sequencing.
(§2) For flow cytometry experiments, the cells were then trypsinized, collected by centrifugation, resuspended in phenol red-free DMEM containing 0.5% bovine calf serum, and analyzed for green fluorescence (FACScan, Beckton Dickinson). […] Curve fitting analysis was performed with Kaleidograph (Synergy Software).

For experiment [5], the target named is Shh signaling. Nature of the experiment: Shh-LIGHT2 assay for Hh pathway activation (Gli-dependent luciferase reporter). It is filed as cell-based, mouse. The settings on record: Shh-LIGHT2 mouse cultured cell assay; read-out: IC50, inhibition of Shh signaling.
Experiment [6] addresses T5, Smo (Mus musculus, UniProt P56726).
T5 construct: expressed in transfected cells; host or cells: Cos-1
Nature of the experiment: Fluorescence (BODIPY-cyclopamine) binding assay, Smo-expressing Cos-1 cells. The note with it: Cos-1 cells transiently transfected, fluorescence microscopy and flow cytometry. The procedure:
as §2

SMILES strings stand for the structures.

T2 sequence (P56726 33-793 W539L): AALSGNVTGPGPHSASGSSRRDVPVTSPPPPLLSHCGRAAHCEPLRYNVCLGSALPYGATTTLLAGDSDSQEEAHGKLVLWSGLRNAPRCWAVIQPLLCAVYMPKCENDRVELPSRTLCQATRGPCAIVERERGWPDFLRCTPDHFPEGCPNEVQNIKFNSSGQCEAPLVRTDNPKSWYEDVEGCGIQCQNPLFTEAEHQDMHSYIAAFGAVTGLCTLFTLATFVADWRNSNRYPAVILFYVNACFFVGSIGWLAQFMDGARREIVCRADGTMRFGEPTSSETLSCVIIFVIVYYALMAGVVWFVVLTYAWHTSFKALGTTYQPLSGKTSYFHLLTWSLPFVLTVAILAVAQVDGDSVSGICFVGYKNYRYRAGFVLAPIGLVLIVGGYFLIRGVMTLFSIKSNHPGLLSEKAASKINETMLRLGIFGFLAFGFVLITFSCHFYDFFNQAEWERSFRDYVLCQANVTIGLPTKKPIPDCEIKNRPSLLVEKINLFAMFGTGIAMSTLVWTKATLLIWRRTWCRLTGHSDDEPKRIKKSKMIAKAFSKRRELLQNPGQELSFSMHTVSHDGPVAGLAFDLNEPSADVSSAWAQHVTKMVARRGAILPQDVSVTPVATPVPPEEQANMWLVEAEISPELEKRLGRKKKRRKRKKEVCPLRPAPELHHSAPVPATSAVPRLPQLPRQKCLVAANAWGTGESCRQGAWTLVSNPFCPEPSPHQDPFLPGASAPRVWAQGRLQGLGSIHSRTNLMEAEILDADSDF
T5 sequence (P56726 33-793): as the sequence (P56726 33-793 W539L) above, with L507W counted along it

The term IC50 denotes the concentration at which inhibition is half-maximal. `CC1=C2CC3C(CC=C4C[C@@H](O)CCC43C)C2CCC12O[C@@H]1CC(C)CN(CCNC(=O)CCCCCNC(=O)CCC3=[N+]4C(=Cc5c(C)cc(C)n5[B-]4(F)F)C=C3)C1C2C` (stereo partly drawn) [BODIPY-cyclopamine]: in experiment [1], the “binding to cells expressing mouse Ptch” value was “did not bind”. In addition, the “binding to cells expressing SmoA1” value in experiment [2] is listed as “did not bind”. The “binding to cells expressing mouse Frizzled7” value in experiment [3] is given as “did not bind”. In experiment [4], the “binding to cells expressing SmoΔCT” value is listed as “can bind”. In experiment [5], the IC50 came to 150 nM. Also, the “binding to Smo-expressing cells” value in experiment [6] is reported as “bound with high capacity”.
